According to US20240100068A1, “METHODS COMPRISING ADMINISTRATION OF A GLUCOCORTICOID RECEPTOR AGONIST AND AN INHIBITOR OF CALCINEURIN” (Chengdu Anticancer Bioscience, Ltd., priority 2022, published 2024):
Where two headings read alike, the source gives them in different places.

How the values were obtained:
T2MycNick cells = test: Testing compounds for their ability of restoring contact inhibition (vacuolation, cell density); type: cell-based, murine; settings: for minimal effective concentration: T2MycNick cells grown beyond confluence, 7-14 days; for cell density reduction (in words) / vacuolation (in words): compound alone; for vacuolation (in words): up to 10 μM
Method: Exponentially growing MycNick cells were passaged into 24-well plates at a final confluence of 90% and were allowed to attach for 48 hours before being exposed to a cortisol analog in the presence or absence of a calcineurin inhibitor. After the initiation of treatment, the cells were allowed to grow beyond confluence for 7 days before being subjected to morphological analysis and cell density. An inverted tissue culture microscope (Leica) was used to document vacuoles in live cells. Cell density was evaluated under an EVOS FL Auto microscope (Thermo Fisher) after fixation of the treated cells with 4% paraformaldehyde (PFA) in the presence of detergent 0.5% Triton X-100 and subsequently staining of DNA with 5 μg/ml of Propidium Iodide (PI) in the presence of 5 μg/ml of Ribonuclease A from bovine pancreas (RNase A) (Sigma, Cat. # R6513-50MG).
Exponentially growing murine cells expressing Myc-Nick (T2MycNick cells) were passaged into 24-well plates at a final confluence of 20% and were allowed to attach overnight before being exposed to a test compound at a concentration of 10 μM. […] The cells were subjected to daily analysis of viability and morphology under an inverted tissue culture microscope or GE InCell Analyzer 2000. Cell density was documented after staining of DNA with PI 7-10 days after the initiation of treatment.

MycNick cells = test: Combination treatment with Hydrocortisone: modulation of HC-induced vacuolation, cell density reduction and CIR effect; type: cell-based, murine; settings: for HC-triggered vacuolation in presence of the compound: added to HC; for sensitization to induction of vacuolation elicited by Hydrocortisone: 10 days, FIG. 16: Cyclosporin A […], Hydrocortisone 0.3 μM; for Cell density reduction by Hydrocortisone / Vacuolation by Hydrocortisone: Combination treatment with Hydrocortisone for 7 days
Method: Exponentially growing MycNick cells were passaged into 24-well plates at a final confluence of 90% and were allowed to attach for 48 hours before being exposed to a cortisol analog in the presence or absence of a calcineurin inhibitor. […] An inverted tissue culture microscope (Leica) was used to document vacuoles in live cells. Cell density was evaluated under an EVOS FL Auto microscope (Thermo Fisher) after fixation of the treated cells with 4% paraformaldehyde (PFA) in the presence of detergent 0.5% Triton X-100 and subsequently staining of DNA with 5 μg/ml of Propidium Iodide (PI) in the presence of 5 μg/ml of Ribonuclease A from bovine pancreas (RNase A) (Sigma, Cat. # R6513-50MG).
The threshold concentration that was used to elicit no less than 50% of reduction in the cell density was determined. So was the minimal effective concentration that could induce vacuolation to an extent that covered no less than 10% of a random field documented under a bright field microscope. Quantification of the area with vacuolation, multilayer zones or multilayer zones was performed with the Image J software. More than 10 random fields were chosen for quantification for each data point in each of two independent experiments.
A chemical library for enhancers of the CIR effect of HC in MycNick cells was screened.

[1] = Mus musculus, PI staining, read-out: Conc that reduces > 50% in the cell density
[2] = Mus musculus, vacuolation covering no less than 10% of a random field, read-out: Min. effective conc. that elicits vacuolation
[3] = PI staining, read-out: Conc that reduces > 50% in the cell density
[4] = vacuolation covering no less than 10% of a random field, read-out: Min. effective conc. that elicits vacuolation

With `CC(=O)[C@@]1(O)CC[C@H]2[C@@H]3C[C@H](C)C4=CC(=O)C=C[C@]4(C)[C@@]3(F)[C@@H](O)C[C@@]21C` [CI043, Fluorometholone] the minimal effective concentration (T2MycNick cells; [1]) was 2.5 µM and the minimal effective concentration (T2MycNick cells; [2]) was 0.625 µM.

In the case of `CC#CCn1c(N2CCC[C@@H](N)C2)nc2c1c(=O)n(Cc1nc(C)c3ccccc3n1)c(=O)n2C` [linagliptin], the “HC-triggered vacuolation in presence of the compound” value (MycNick cells) was “failed to inhibit”.

In the case of `CCC(=O)O[C@]1(C(=O)SCF)[C@H](C)C[C@H]2[C@@H]3C[C@H](F)C4=CC(=O)C=C[C@]4(C)[C@@]3(F)[C@@H](O)C[C@@]21C` [CI022, Fluticasone propionate], the minimal effective concentration (T2MycNick cells; [1]) was 2.5 µM and the minimal effective concentration (T2MycNick cells; [2]) was 0.625 µM.

`C[C@]12C=CC(=O)C=C1CC[C@H]1[C@@H]3C[C@@H](O)[C@](O)(C(=O)CO)[C@@]3(C)C[C@H](O)[C@@]12F` [CI047, Triamcinolone] gave a minimal effective concentration (T2MycNick cells; [1]) of 2.5 µM and a minimal effective concentration (T2MycNick cells; [2]) of 0.625 µM.

`C#C[C@]1(O)CC[C@H]2[C@@H]3CCC4=CC(=O)CC[C@]4(C)[C@H]3CC[C@@]21C` [CI032, Ethisterone] was tested, and the minimal effective concentration (T2MycNick cells; [1]) was 10 µM, the minimal effective concentration (T2MycNick cells; [2]) was > 10 µM and the “cell density reduction (in words)” value (T2MycNick cells) was “failed to elicit vacuolation or reduce cell density”. The “vacuolation (in words)” value (T2MycNick cells) was “failed to elicit vacuolation”.

`CC[C@@H]1/C=C(\C)C[C@H](C)C[C@H](OC)[C@H]2O[C@@](O)(C(=O)C(=O)N3CCCC[C@H]3C(=O)O[C@H](/C(C)=C/[C@@H]3CC[C@@H](O)[C@H](OC)C3)[C@H](C)[C@@H](O)CC1=O)[C@H](C)C[C@@H]2OC` [CI034, Ascomycin] was tested, and the “vacuolation (in words)” value (T2MycNick cells) was “did not elicit vacuolation”, the “sensitization to induction of vacuolation elicited by Hydrocortisone” value (“sensitization to induction” below) (MycNick cells) was “sensitizes” and the “Cell density reduction by Hydrocortisone” value (MycNick cells) was “Enhanced”. For the same molecule, the “Vacuolation by Hydrocortisone” value (MycNick cells) was “Enhanced”.

Molecule `CC(=O)O[C@]1(C(C)=O)CC[C@H]2[C@@H]3C[C@H](C)C4=CC(=O)CC[C@]4(C)[C@H]3CC[C@@]21C` [CI031, Medroxyprogesterone acetate] has a minimal effective concentration (T2MycNick cells; [3]) of 2.5 µM and a minimal effective concentration (T2MycNick cells; [4]) of 2.5 µM.

In the case of `C=CC[C@@H]1/C=C(\C)C[C@H](C)C[C@H](OC)[C@H]2O[C@@](O)(C(=O)C(=O)N3CCCC[C@H]3C(=O)O[C@H](/C(C)=C/[C@@H]3CC[C@@H](O)[C@H](OC)C3)[C@H](C)[C@@H](O)CC1=O)[C@H](C)C[C@@H]2OC` [CI046, Tacrolimus], the “vacuolation (in words)” value (T2MycNick cells) was “did not elicit vacuolation”, the “sensitization to induction” value (MycNick cells) was “sensitizes” and the “Cell density reduction by Hydrocortisone” value (MycNick cells) was “Enhanced”. For the same molecule, the “Vacuolation by Hydrocortisone” value (MycNick cells) was “Enhanced”.

In the case of `CC#C[C@]1(O)CC[C@H]2[C@@H]3CCC4=CC(=O)CCC4=C3[C@@H](c3ccc(N(C)C)cc3)C[C@@]21C` [Mifepristone], the “contact inhibition restoration (CIR) activity” value (T2MycNick cells; high-density cells) was “failed to elicit” and the “CIR effect of HC in presence of antagonist” value (MycNick cells; 5 μM of Mifepristone) was “completely blocked”.

For `Cn1c(=O)cc(N2CCC[C@@H](N)C2)n(Cc2ccccc2C#N)c1=O` [alogliptin], the “HC-triggered vacuolation in presence of the compound” value (MycNick cells) was “failed to inhibit”.

In the case of `C[C@]12C=CC(=O)C=C1CC[C@@H]1[C@@H]2C(=O)C[C@@]2(C)[C@H]1CC[C@]2(O)C(=O)CO` [CI042, Prednisone], the minimal effective concentration (T2MycNick cells; [1]) was 2.5 µM and the minimal effective concentration (T2MycNick cells; [2]) was > 10 µM.

With `CCCC(=O)O[C@]1(C(=O)CO)CC[C@H]2[C@@H]3CCC4=CC(=O)CC[C@]4(C)[C@H]3[C@@H](O)C[C@@]21C` [HC004, Hydrocortisone 17-Butyrate] the minimal effective concentration (T2MycNick cells; [3]) was 10 µM and the minimal effective concentration (T2MycNick cells; [4]) was >10 µM.

Molecule `CC(=O)OCC(=O)[C@@]12OC(C)(C)O[C@@H]1C[C@H]1[C@@H]3C[C@H](F)C4=CC(=O)C=C[C@]4(C)[C@@]3(F)[C@@H](O)C[C@@]12C` [CI048, Fluocinonide] has a minimal effective concentration (T2MycNick cells; [1]) of 2.5 µM and a minimal effective concentration (T2MycNick cells; [2]) of 0.625 µM.

In the case of `C[C@]12CCC3=C4CCC(=O)C=C4CC[C@H]3[C@@H]1CC[C@@]2(O)CC#N` [CI033, Dienogest], the minimal effective concentration (T2MycNick cells; [1]) was 10 µM, the minimal effective concentration (T2MycNick cells; [2]) was > 10 µM and the “cell density reduction (in words)” value (T2MycNick cells) was “failed to elicit vacuolation or reduce cell density”. For the same molecule, the “vacuolation (in words)” value (T2MycNick cells) was “failed to elicit vacuolation”.

For `CC[C@@H]1/C=C(\C)C[C@H](C)C[C@H](OC)[C@H]2O[C@@](O)(C(=O)C(=O)N3CCCC[C@H]3C(=O)O[C@H](/C(C)=C/[C@@H]3CC[C@H](Cl)[C@H](OC)C3)[C@H](C)[C@@H](O)CC1=O)[C@H](C)C[C@@H]2OC` [CI040, Pimecrolimus], the “vacuolation (in words)” value (T2MycNick cells) was “did not elicit vacuolation”, the “sensitization to induction” value (MycNick cells) was “sensitizes” and the “Cell density reduction by Hydrocortisone” value (MycNick cells) was “Enhanced”. For the same molecule, the “Vacuolation by Hydrocortisone” value (MycNick cells) was “Enhanced”.

Work on `CCC(=O)OCC(=O)[C@@]1(OC(=O)CC)[C@@H](C)C[C@H]2[C@@H]3CCC4=CC(=O)C=C[C@]4(C)[C@@]3(Cl)[C@@H](O)C[C@@]21C` [CI019, Beclomethasone dipropionate] yielded a minimal effective concentration (T2MycNick cells; [1]) of 2.5 µM and a minimal effective concentration (T2MycNick cells; [2]) of 0.625 µM.

For `C#C[C@]1(OC(C)=O)CC[C@H]2[C@@H]3CCC4=C[C@@H](OC(C)=O)CC[C@@H]4[C@H]3CC[C@@]21C` [CI030, Ethynodiol diacetate], the minimal effective concentration (T2MycNick cells; [1]) was 5 µM, the minimal effective concentration (T2MycNick cells; [2]) was > 10 µM and the “cell density reduction (in words)” value (T2MycNick cells) was “failed to elicit vacuolation or reduce cell density”. For the same molecule, the “vacuolation (in words)” value (T2MycNick cells) was “failed to elicit vacuolation”.

Molecule `C[C@@H]1C[C@H]2[C@@H]3CCC4=CC(=O)C=C[C@]4(C)[C@@]3(F)[C@@H](O)C[C@]2(C)[C@@]1(O)C(=O)COP(=O)([O-])[O-].[Na+].[Na+]` [CI039, Dexamethasone 21-phosphate disodium salt] has a minimal effective concentration (T2MycNick cells; [3]) of 2.5 µM and a minimal effective concentration (T2MycNick cells; [4]) of 0.625 µM.

With `CC1(C)O[C@@H]2C[C@H]3[C@@H]4CCC5=CC(=O)C=C[C@]5(C)[C@H]4[C@@H](O)C[C@]3(C)[C@]2(C(=O)CO)O1` [CI020, Desonide] the minimal effective concentration (T2MycNick cells; [1]) was 2.5 µM and the minimal effective concentration (T2MycNick cells; [2]) was 0.625 µM.

`CC(=O)OCC(=O)[C@@]1(O)CC[C@H]2[C@@H]3CCC4=CC(=O)CC[C@]4(C)[C@H]3[C@@H](O)C[C@@]21C` [HC003, Hydrocortisone 21-acetate] was tested, and the minimal effective concentration (T2MycNick cells; [3]) was 2 µM and the minimal effective concentration (T2MycNick cells; [4]) was >10 µM.

`CC1(C)O[C@@H]2C[C@H]3[C@@H]4CCC5=CC(=O)C=C[C@]5(C)[C@@]4(F)[C@@H](O)C[C@]3(C)[C@]2(C(=O)CO)O1` [CI041, Triamcinolone acetonide] showed a minimal effective concentration (T2MycNick cells; [1]) of 2.5 µM and a minimal effective concentration (T2MycNick cells; [2]) of 0.625 µM.

In the case of `C[C@]12CCC(=O)C=C1CC[C@@H]1[C@@H]2CC[C@@]2(C)[C@H]1CC[C@]2(O)C(=O)CO` [CI049, Cortodoxone], the minimal effective concentration (T2MycNick cells; [1]) was 10 µM and the minimal effective concentration (T2MycNick cells; [2]) was 5 µM.

With `CC1(C)O[C@@H]2C[C@H]3[C@@H]4C[C@H](F)C5=CC(=O)C=C[C@]5(C)[C@@]4(F)[C@@H](O)C[C@]3(C)[C@]2(C(=O)CO)O1` [CI021, Fluocinolone Acetonide] the minimal effective concentration (T2MycNick cells; [1]) was 2.5 µM and the minimal effective concentration (T2MycNick cells; [2]) was 0.625 µM.

For `C[C@]12C[C@H](O)[C@H]3[C@@H](CCC4=CC(=O)CC[C@@]43C)[C@@H]1CC[C@@H]2C(=O)CO` [CI028, Corticosterone], the minimal effective concentration (T2MycNick cells; [1]) was 2.5 µM and the minimal effective concentration (T2MycNick cells; [2]) was 0.625 µM.

In the case of `CC(=O)OCC(=O)[C@@]1(O)[C@H](C)C[C@H]2[C@@H]3CCC4=CC(=O)C=C[C@]4(C)[C@@]3(F)[C@@H](O)C[C@@]21C` [HC005, Dexamethasone 21-acetate], the minimal effective concentration (T2MycNick cells; [3]) was 10 µM and the minimal effective concentration (T2MycNick cells; [4]) was >10 µM.

For `C[C@@H]1C[C@H]2[C@@H]3CCC4=CC(=O)C=C[C@]4(C)[C@@]3(Cl)[C@@H](O)C[C@]2(C)[C@@]1(OC(=O)c1ccco1)C(=O)CCl` [CI023, Mometasone Furoate], the minimal effective concentration (T2MycNick cells; [1]) was 2.5 µM and the minimal effective concentration (T2MycNick cells; [2]) was 0.625 µM.
